Measurements: patent US4886806A, “Flavone-3-carboxylic acids compounds and pharmaceutical compositions containing them” (Kali-Chemie Pharma GmbH, priority 1987, dated 1989)
Where two headings read alike, the source gives them in different places.

Experiments:
[1] = test system: oxygen radical-forming activity of peritoneal exudate cells (PEC) of mice; test: Spontaneous CL and induced CL chemiluminescence test: inhibition of oxygen radical liberation from peritoneal exudate cells (30 min preincubation); assay type: cell-based; set-up: concentration or dose not given beside the values; conditions: for Inhibition in vitro of the oxygen radical liberation, Chemiluminescence Test % inhibition, Ind. CL: induced CL, after ZyC3b activation; for Inhibition in vitro of the oxygen radical liberation, Chemiluminescence Test % inhibition, Spnt. CL: spontaneous CL, before ZyC3b
Method: 1. To determine the inhibiting effect on the oxygen radical-forming activity of inflamed cells, the in vitro inhibition of the release of oxygen radicals from activated peritoneal exudate cells (=PEC) of mice was determined in the chemiluminescence (CL) test according to the method of Mueller-Peddinghaus (Int. J. Immunopharmac. 6, 455-466 (1984)). […] The intensity of the chemiluminescence is a measurement of the oxygen radical content in the suspension and thus the degree of activity of the inflamed cells. In this, three functionally different parameters are detected, the spontaneous CL, the induced CL and the peak CL. The spontaneous CL and the induced CL on the one hand and the peak CL on the other hand differ from each other because in the first two parameters the test substances are in contact with the cells for a 30 minute preincubation period before the inflammation irritant is added, whereas with the peak CL the cells are first stimulated, and the test substance is added at the peak of their activity. The measurement of the spontaneous CL thus detects the influence of the test substance on the relative rest activity of inflamed cells, the induced CL represents the effect of the test substances on the activatability of the cells and the inhibition of the peak CL indicates the effect of the test substances on the maximum activity of the inflamed cells. 1.1 Production of PEC suspension used in the test. In order to induce the PEC formation, female mice of 20-25 g body weight were each injected i.p. with 2 ml of a 3% solution of thioglycollate in sterile isotonic sodium chloride solution. Twenty four hours after the thioglycollate injection the cells, which predominantly consisted of polymorphonuclear leucocytes, were recovered by washing out of the abdominal cavity and washed twice. As cell culture medium there was added a commercially available solution under the designation RPMI 1640 (pH 7.2) (produced by Flow Laboratories, […], Germany), which contains 10% fetal calf serum (FCS, produced by Seromed GmbH, Munich, Germany) 18 μmol/l sodium bicarbonate and 2 μmol/l L-glutamine. The cell pellets of four animals each time were resuspended in cell culture medium, collected together and the suspension was made up to 2×10^6 cells per ml with cell culture medium. The cell suspensions were kept under ice cooling until their use the same day. 1.2 Production of the complement opsonized zymosan (=ZyC3 b) suspension used for activation. 200 mg zymosan (glycoprotein mixture isolated from the cell walls of brewer's yeast, Sacchomyces […], produced by Sigma Chemical Co., Munich, Germany) were suspended in 10 ml phosphate buffer solution according to Dulbecco (produced by Flow Laboratories, […], Germany), well stirred and heated for thirty minutes in a water bath to 100° C. After cooling, it was centrifuged for five minutes at 4° C. and at 600 ×g and the supernatant was discarded. The sediment was resuspended in 50 ml human serum and incubated for thirty minutes at 37° C. in a shaking water bath. Then it was centrifuged for five minutes at 600 ×g and 420 C., the supernatant decanted and the sediment washed with phosphate buffer solution. The working suspension of 8×10^-3 g ZyC3 b/ml was produced from the sediment by dilution with phosphate buffer solution (Mueller-Peddinghaus et al., Zbl. Vet. Med. B. 30, 559-575). 1.3 Chemiluminescence (CL) measurement (Peak-CL). […] At the end of this preincubation phase, 100 μl lucigenin were added, and in the course of the subsequent sixteen minute incubation phase the spontaneous CL parameter was determined with two measuring points. Then 100 μl ZyC3 b+100 μl phosphate buffer were added, and during the course of the subsequent twenty-four minute cell activation the induced CL parameter was measured with three measuring points. All measurements were determined twice. The parameters spontaneous CL and induced CL were determined on the same day with two separate cell pools.

[2] = test system: Lipoxygenase; test: LTB4 synthesis and inhibition test (lipoxygenase inhibition in vitro) in polymorphonuclear leucocytes; assay type: cell-based; conditions: PMNL; for inhibition at 100 µM: Homo sapiens, read-out: Lipoxygenase inhib. in vitro, % inhibition of the LTB4 synthesis at 10^-4 Mol/l
Method: 2. In order to investigate the lipoxygenase-inhibiting properties, the inhibiting effect of the substances on the biosynthesis of leucotriene B4 (=LTB4) from arachidonic acid by activated inflamed cells was determined in vitro. Leucotriene B4, a dihydroxy fatty acid which plays an important role not only in the inflammation but also in allergic reactions was oxidatively formed, starting from arachidonic acid, by oxidation through the action of the enzyme lipoxygenase.
LTB4 Synthesis and Inhibition Test.
The combined extracts were evaporated under vacuum to dryness and the residue was taken up in 0.5 ml 30% aqueous methanol and was analyzed with the aid of high pressure liquid chromatography with phase reversal (=reversed phase-HPLC). The stationary phase (=separating medium) consisted of silica gel containing octadecyl groups chemically bound thereto (=RSIL C18 HP; produced by Autech, Darfield, Ill.). The solvent mixture is methanol:water:acetic acid (67:33:0.1; v/v/v), which had been adjusted to a pH value of 6.2 with NH3 /H2 O. The flow velocity was 1 ml/min. […] The LTB4 signals were compared with those of the control (cell incubation with solvent) and reported as percent inhibition of LTB4 synthesis compared with the controls.

[3] = 10^-4 Mol/l, Ca-ionophore A 23187, arachidonic acid

Structure (SMILES) | Inhibition in vitro of the oxygen radical liberation, Chemiluminescence Test % inhibition, Ind. CL [1] | Inhibition in vitro of the oxygen radical liberation, Chemiluminescence Test % inhibition, Spnt. CL [1] | inhibition at 100 µM [2, 3] | inhibition at 100 µM [2] | Lipoxygenase inhib. in vitro, % inhibition of the LTB4 synthesis at 10^-4 Mol/l [2, 3]
O=C(NCCc1ccccn1)c1c(-c2cc(O)c(O)c(O)c2)oc2ccccc2c1=O [Example 53] | 83% | 73% | 77% | – | –
COc1cc(OC)c2c(=O)c(C(=O)N3CCN(c4ccccn4)CC3)c(-c3ccccc3)oc2c1 [Example 34] | 55% | 54% | 25% | – | –
CN1CCN(CCCCNC(=O)c2c(-c3ccccc3)oc3ccccc3c2=O)CC1 [Example 24] | 14% | 55% | 46% | – | –
O.O.O=C(O)C(O)C(O)C(=O)O.O=C(c1c(-c2cc(O)c(O)c(O)c2)oc2ccccc2c1=O)N1CCN(Cc2ccccc2)CC1 [Example 14e, 3',4',5'-trihydroxy-3-[(4-benzylpiperazin-1-yl)carbonyl] -flavone tartrate dihydrate] | 99% | 98% | – | 86% | –
Cl.O=C(c1c(-c2ccccc2)oc2ccccc2c1=O)N1CCN(c2ccccn2)CC1 [Example 1c, 3-{[4-(2-Pyridyl)-piperazin-1-yl]-carbonyl}flavone hydrochloride] | 39% | 49% | 52% | – | –
COc1ccc(-c2oc3ccccc3c(=O)c2C(=O)N2CCN(c3ccccn3)CC2)cc1OC [Example 32b] | 65% | 71% | 25% | – | –
COc1cc(-c2oc3ccccc3c(=O)c2C(=O)N2CCN(c3ccccn3)CC2)cc(OC)c1OC [Example 7b, 3',4',5'-trimethoxy-3-{[4-(2-pyridyl)-piperazin-1-yl]-carbonyl}flavone] | 50% | 61% | – | – | 42%
CC(=O)Oc1cc(-c2oc3ccccc3c(=O)c2C(=O)N2CCN(c3ccccn3)CC2)cc(OC(C)=O)c1OC(C)=O [Example 39b] | 99% | 99% | 93% | – | –
CCN(CC)CCCOC(=O)c1c(-c2ccccc2)oc2ccccc2c1=O.Cl [Example 3b, 3-[3-(diethylamino)propoxycarbonyl]flavone hydrochloride] | 83% | 94% | 8% | – | –
COc1cc(-c2oc3ccccc3c(=O)c2C(=O)NCCCCN2CCN(c3ncccn3)CC2)cc(OC)c1OC [Example 54] | 83% | 91% | 44% | – | –
O=C(NCCCCN1CCN(c2ccccn2)CC1)c1c(-c2ccccc2)oc2ccccc2c1=O [Example 4e, 3-{4-[4-(2-pyridyl)-piperazin-1-yl]-butylaminocarbonyl}flavone] | 82% | 95% | 10% | – | –
COc1cc(-c2oc3ccccc3c(=O)c2C(=O)N2CCN(c3ccccn3)CC2)cc(OC)c1OC [Example 7a, 3',4',5'-trimethoxy-3-{[4-(2-pyridyl)-piperazin-1-yl]-carbonyl}flavone] | 65% | 75% | 38% | – | –
O.O=C(O)C(O)C(O)C(=O)O.O=C(c1c(-c2ccccc2)oc2ccccc2c1=O)N1CCN(Cc2ccccc2)CC1 [Example 2b, 3-[(4-benzyl-piperazin-1-yl)-carbonyl]flavone tartrate monohydrate] | 54% | 67% | – | 92% | –
O=C(c1c(-c2cccc(O)c2)oc2ccccc2c1=O)N1CCN(Cc2ccccc2)CC1 [Example 30] | 85% | 85% | 44% | – | –
